# Data published in PubChem BioAssay AID328 (DTP/NCI, 2004).
# Where “and” joins values, the source holds several entries; their conditions need not be identical. Equal values may be shown once. Inconclusive results and toxic doses are left out.
# System: BDF1 mice, P388 leukemia ip, median survival T/C
# Assay: NCI In Vivo Anticancer Drug Screen. Data for tumor model P388 Leukemia (intraperitoneal) in B6D2F1 (BDF1) mice
# Details: endpoint: median survival time, higher = longer survival
# Outline: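 Each value expresses how treatment altered survival: treated-mouse outcome over vehicle-mouse outcome, both groups bearing the transplanted tumour.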
# [1] = dose: 100.0 mg/kg/injection, schedule: Q04DX003 (ip), vehicle: saline with Tween-80
# [2] = dose: 200.0 mg/kg/injection, schedule: Q04DX003 (ip), vehicle: saline with Tween-80
# [3] = dose: 100.0 mg/kg/injection, schedule: Q01DX001 (ip), vehicle: saline with Tween-80
# [4] = dose: 200.0 mg/kg/injection, schedule: Q01DX001 (ip), vehicle: saline with Tween-80
# [5] = dose: 400.0 mg/kg/injection, schedule: Q01DX001 (ip), vehicle: saline with Tween-80
# [6] = dose: 100.0 mg/kg/injection, schedule: Q01DX009 (ip), vehicle: saline with Tween-80
# [7] = dose: 25.0 mg/kg/injection, schedule: Q01DX009 (ip), vehicle: saline with Tween-80
# [8] = dose: 50.0 mg/kg/injection, schedule: Q01DX009 (ip), vehicle: saline with Tween-80
# [9] = dose: 200.0 mg/kg/injection, schedule: Q01DX009 (ip), vehicle: saline with Tween-80
# [10] = dose: 50.0 mg/kg/injection, schedule: Q01DX009 (ip), vehicle: Klucel (hydroxypropylcellulose) (HPC)
# [11] = dose: 100.0 mg/kg/injection, schedule: Q01DX009 (ip), vehicle: Klucel (hydroxypropylcellulose) (HPC)
# [12] = dose: 200.0 mg/kg/injection, schedule: Q01DX009 (ip), vehicle: Klucel (hydroxypropylcellulose) (HPC)
# [13] = dose: 400.0 mg/kg/injection, schedule: Q04DX003 (ip), vehicle: saline with Tween-80
# [14] = dose: 400.0 mg/kg/injection, schedule: Q01DX009 (ip), vehicle: saline with Tween-80
compound,measurement,setting,value
O=C1NC(=O)C2(CCCc3ccc(N(CCCl)CCCl)cc32)N1 (stereo unspecified),T/C,"dose: 6.25 mg/kg/injection, schedule: Q04DX003 (ip), vehicle: saline with Tween-80",150 % of control
same,T/C,"dose: 12.5 mg/kg/injection, schedule: Q04DX003 (ip), vehicle: saline with Tween-80",170 % of control
same,T/C,[1],227 % of control
same,T/C,"dose: 132.0 mg/kg/injection, schedule: Q04DX003 (ip), vehicle: saline with Tween-80",195 % of control
same,T/C,[2],229 % of control and 240 % of control
same,T/C,"dose: 300.0 mg/kg/injection, schedule: Q04DX003 (ip), vehicle: saline with Tween-80",191 % of control
CC1(C)N=C(c2ccc3ccccc3c2)CC1C#N (stereo unspecified),T/C,[3],100 % of control
same,T/C,[4],100 % of control
same,T/C,[5],95 % of control
CC[Se](CC)CC.CC[Se](CC)CC.C[CH2][Ge]([CH2]C)[O][Ge]([CH2]C)[CH2]C,T/C,[6],107 % of control
CCCC(Sc1nc(N)nc2nc[nH]c12)C(=O)O (stereo unspecified),T/C,"dose: 100.0 mg/kg/injection, schedule: Q01DX009 (ip), vehicle: saline sonified",115 % of control
same,T/C,"dose: 100.0 mg/kg/injection, schedule: Q04DX003 (ip), vehicle: saline sonified",109 % of control
same,T/C,"dose: 200.0 mg/kg/injection, schedule: Q04DX003 (ip), vehicle: saline sonified",118 % of control
same,T/C,"dose: 400.0 mg/kg/injection, schedule: Q01DX009 (ip), vehicle: saline sonified",100 % of control
same,T/C,"dose: 400.0 mg/kg/injection, schedule: Q04DX003 (ip), vehicle: saline sonified",109 % of control
COc1ccc2[nH]c3c(C)c4cc[n+](C)cc4c(C)c3c2c1,T/C,"dose: 6.25 mg/kg/injection, schedule: Q01DX009 (ip), vehicle: saline with Tween-80",99 % of control
CNC(=O)OCCN(CCOC(=O)NC)C(=O)N1c2ccccc2Sc2ccccc21,T/C,[7],95 % of control and 107 % of control
same,T/C,[8],98 % of control
same,T/C,[6],98 % of control and 116 % of control
same,T/C,[9],115 % of control
CC1(C)CC(C(N)=O)C(C)(C)N1O (stereo unspecified),T/C,"dose: 100.0 mg/kg/injection, schedule: Q01DX001 (ip), vehicle: saline",109 % of control
same,T/C,"dose: 200.0 mg/kg/injection, schedule: Q01DX001 (ip), vehicle: saline",86 % of control
same,T/C,"dose: 400.0 mg/kg/injection, schedule: Q01DX001 (ip), vehicle: saline",100 % of control
O=S1(=O)CCN(C2CCCCCCC2)CC1,T/C,[10],115 % of control
same,T/C,[11],116 % of control
same,T/C,[12],104 % of control
O=C(O)CNC(=O)C(Br)Cc1ccccc1 (stereo unspecified),T/C,[1],90 % of control
same,T/C,[2],100 % of control
same,T/C,[13],100 % of control
COc1ccc(-c2cc(C)n(C)[n+]2C)cc1,T/C,"dose: 12.5 mg/kg/injection, schedule: Q01DX009 (ip), vehicle: saline with Tween-80",103 % of control
same,T/C,[7],109 % of control
CCCCCCCSc1ncnc2nc[nH]c12,T/C,[6],100 % of control
same,T/C,[1],86 % of control
same,T/C,[9],86 % of control
same,T/C,[2],95 % of control
same,T/C,[14],109 % of control
same,T/C,[13],100 % of control
NC(N)=N/N=C/c1ccc(Cl)c(Cl)c1,T/C,"dose: 6.25 mg/kg/injection, schedule: Q01DX009 (ip), vehicle: Klucel (hydroxypropylcellulose) (HPC)",102 % of control
same,T/C,"dose: 12.5 mg/kg/injection, schedule: Q01DX009 (ip), vehicle: Klucel (hydroxypropylcellulose) (HPC)",100 % of control
same,T/C,"dose: 25.0 mg/kg/injection, schedule: Q01DX009 (ip), vehicle: Klucel (hydroxypropylcellulose) (HPC)",94 % of control
same,T/C,[10],100 % of control
O=[N+]([O-])c1cc([N+](=O)[O-])c2ccccc2c1NS(=O)(=O)c1ccc(Br)cc1,T/C,[7],112 % of control
same,T/C,[8],113 % of control
CCCCCCCCC1SC1CCCCCCCC(=O)OCCN(C)C(=O)CCCCCCCC1SC1CCCCCCCC (stereo unspecified),T/C,"dose: 100.0 mg/kg/injection, schedule: Q04DX003 (ip), vehicle: other",100 % of control
same,T/C,"dose: 200.0 mg/kg/injection, schedule: Q04DX003 (ip), vehicle: other",100 % of control
same,T/C,"dose: 400.0 mg/kg/injection, schedule: Q04DX003 (ip), vehicle: other",100 % of control
CCCCCCCCCCCCCCCC(N)=O,T/C,"dose: 12.5 mg/kg/injection, schedule: Q01DX009 (ip), vehicle: gum acacia",100 % of control
same,T/C,"dose: 50.0 mg/kg/injection, schedule: Q01DX009 (ip), vehicle: gum acacia",91 % of control
same,T/C,"dose: 100.0 mg/kg/injection, schedule: Q04DX003 (ip), vehicle: Klucel (hydroxypropylcellulose) (HPC)",86 % of control
same,T/C,"dose: 200.0 mg/kg/injection, schedule: Q04DX003 (ip), vehicle: Klucel (hydroxypropylcellulose) (HPC)",90 % of control
same,T/C,"dose: 400.0 mg/kg/injection, schedule: Q04DX003 (ip), vehicle: Klucel (hydroxypropylcellulose) (HPC)",104 % of control
COC(=O)CN(c1c(C)cc(C)c(N)c1C)S(=O)(=O)c1ccccc1,T/C,"dose: 100.0 mg/kg/injection, schedule: Q01DX001 (ip), vehicle: Klucel (hydroxypropylcellulose) (HPC)",91 % of control
same,T/C,"dose: 400.0 mg/kg/injection, schedule: Q01DX001 (ip), vehicle: Klucel (hydroxypropylcellulose) (HPC)",100 % of control
BrC1(Br)CC1(c1ccccc1)c1ccccc1,T/C,[11],110 % of control
same,T/C,[12],110 % of control
same,T/C,"dose: 400.0 mg/kg/injection, schedule: Q01DX009 (ip), vehicle: Klucel (hydroxypropylcellulose) (HPC)",105 % of control
O=CNc1ccccc1Cl,T/C,[3],112 % of control
same,T/C,[4],91 % of control
same,T/C,[5],91 % of control
COC(=O)C(F)C(Br)C(=O)OC (stereo unspecified),T/C,[7],113 % of control
same,T/C,[8],115 % of control
c1coc(NC2CCCCC2)n1,T/C,[3],90 % of control
same,T/C,[4],95 % of control
same,T/C,[5],95 % of control
Cc1cc(O)c2c(c1O)C(=O)C13C(=C2O)C(=O)C2C(O)C1C1C(O)C3C(=O)C3=C(O)c4c(O)cc(C)c(O)c4C(=O)C321 (stereo unspecified),T/C,"dose: 2.6 mg/kg/injection, schedule: Q04DX003 (ip), vehicle: saline with Tween-80",113 % of control
same,T/C,"dose: 4.0 mg/kg/injection, schedule: Q04DX003 (ip), vehicle: saline with Tween-80",118 % of control
CCOC(=O)C12CC=CC(CCC1)/C2=N\Nc1ccccc1 (stereo unspecified),T/C,[6],90 % of control
same,T/C,[9],90 % of control
same,T/C,[14],117 % of control
COC(=O)c1ccc(=O)c2nc3/c(=C/O)c(O)cc(=O)c3[nH]c12,T/C,"dose: 12.5 micrograms/kg/injection, schedule: Q01DX009 (ip), vehicle: Klucel (hydroxypropylcellulose) (HPC)",101 % of control
same,T/C,"dose: 25.0 micrograms/kg/injection, schedule: Q01DX009 (ip), vehicle: Klucel (hydroxypropylcellulose) (HPC)",97 % of control
same,T/C,"dose: 50.0 micrograms/kg/injection, schedule: Q01DX009 (ip), vehicle: Klucel (hydroxypropylcellulose) (HPC)",97 % of control
same,T/C,"dose: 99.0 micrograms/kg/injection, schedule: Q01DX009 (ip), vehicle: saline",100 % of control
same,T/C,"dose: 150.0 micrograms/kg/injection, schedule: Q01DX009 (ip), vehicle: saline",109 % of control
same,T/C,"dose: 225.0 micrograms/kg/injection, schedule: Q01DX009 (ip), vehicle: saline",113 % of control
c1c2c(cc3c1OC1=C(CCCCCCCCCC1)C3)OC1=C(CCCCCCCCCC1)C2,T/C,[8],102 % of control
same,T/C,[6],100 % of control
same,T/C,[9],86 % of control
CCCNC(=O)Oc1ccc(C(=O)OCC)cc1,T/C,[1],100 % of control
same,T/C,[2],109 % of control
same,T/C,[13],113 % of control
C/C=C1\CN(C)[C@H]2Cc3c([nH]c4ccccc34)[C@@H](c3cc4[nH]c5c(c4cc3OC)CCN3C[C@H]4C[C@H](CC)[C@H]3[C@@]5(C(=O)OC)C4)C[C@H]1C2C(=O)OC (stereo partly specified),T/C,"dose: 5.0 mg/kg/injection, schedule: Q01DX010 (ip), vehicle: water",90 % of control
same,T/C,"dose: 10.0 mg/kg/injection, schedule: Q01DX010 (ip), vehicle: water",109 % of control
same,T/C,"dose: 20.0 mg/kg/injection, schedule: Q01DX010 (ip), vehicle: water",118 % of control
Nc1ncnc2nc(-c3ccc(Br)cc3)[nH]c12,T/C,[3],94 % of control
same,T/C,[4],106 % of control
